In patent US20250352676A1, “N-Cyclopropyl-1-(4-(4-(Fluoro-18f)Phenyl)Pyrimidin-5-Yl)-N-Methylpiperidine- 4-Carboxamide and Uses in PET Imaging” (Emory University, priority 2022, published 2025):
Where two headings read alike, the source gives them in different places.

Columns and labels:
CYP46A1 [1] = target: T1, CYP46A1 (Mus musculus, UniProt Q9WVK8); assay: Saturation binding studies with brain homogenates; design: species or system rodent
Experimental: Experiments were performed to determine whether a targeted PET imaging probe would allow the quantification of cholesterol metabolism in the living brain, ultimately paving the way for mechanistic studies on brain cholesterol metabolism in humans. […] The tracer distribution matched closely with the Allen Brain Atlas distribution of CYP46A1 expression data in the mouse brain. Quantification of CYP46A1 by Western blot analysis in the same brain regions confirmed that tracer binding patterns were in concert with CYP46A1 expression across all tested brain regions. Saturation binding studies were performed to determine the dissociation constant (KD) of the probe as well as to assess the amount of available CYP46A1 protein (Bmax) in selected brain regions.

[2] = system: major CNS targets, including common G protein-coupled receptors, ion channels, enzymes, and transporters; assay: Pharmacological screening on major CNS targets; details: testing concentration of 10 μM
[3] = Incubation with mouse liver microsomes (radiodefluorination); format: in vitro ADME
[4] = Incubation with rat liver microsomes (radiodefluorination); format: in vitro ADME
[5] = format: in vitro ADME, VHP
Experimental: (§1) PET imaging studies were conducted by intravenous injection of 18F-CHL-2205 to rats. […] Greater than 99% of the brain signal was attributed to the intact parent tracer. The brain signal was substantially devoid of interference by radiometabolites. By ex vivo studies, greater than 90% of the signal in the brain was specific at 15, 30, and 45 min after injection.

[6] = Incubation with human liver microsomes (radiodefluorination); format: in vitro ADME
CYP46A1 [7] = target: T2, CYP46A1 (Rattus norvegicus, UniProt A0ACM8QFK4); assay: PET imaging and ex vivo brain studies after intravenous injection to rats; format: in vivo
T2 construct: from tissue; host or cells: brain of living rats
Experimental: as §1
(§2) CD1, 3×Tg-AD mice and respective controls (sex: female, age: 9 to 13 months), as well as rats were purchased from established commercial vendors and kept under a 12-hour light/12-hour dark cycle, with ad libitum food and water. Animals were allowed to acclimatize for at least 1 week before the start of the experimental procedures. Mice and rats were anesthetized with isoflurane and scanned in a μPET/computed tomography (CT) scanner for 60 min after tail-vein injection of 18F-CHL-2205. Data were reconstructed in user-defined time frames. Time-activity curves (TACs) were calculated with predefined regions of interest. Results are presented as area under the curve (AUC) from the respective TACs of SUVs, indicating the decay-corrected radioactivity per cubic centimeter, divided by the injected dose per gram of body weight.

Dosimetry experiments = format: in vivo
human CYP46A1 (hCYP46A1) = target: T3, human CYP46A1 (hCYP46A1) (Homo sapiens, UniProt Q9Y6A2); assay: Cell uptake studies in HEK cells overexpressing hCYP46A1; format: cell-based
T3 construct: expressed in transfected cells; host or cells: HEK cells (HEK-CYP46A1)
Experimental: Cell uptake studies were conducted with transfected human embryonic kidney (HEK) cells overexpressing human CYP46A1 (hCYP46A1) and respective controls.
Cell uptake assays were conducted using hCYP46A1 enzyme-HEK cell line (HEK-CYP46A1) and HEK control cells were cultured in Dulbecco's modified Eagle's medium (DMEM) supplemented with 10% fetal bovine serum and antibiotics (0.1 mg/ml streptomycin and 100 IU/ml penicillin). Cells were kept under standard conditions at 37° C. and 5% CO2 and subsequently subpassaged using a solution of 0.25% trypsin and 0.02% EDTA. For cell uptake measurements, HEK-CYP46A1 and HEK control cells were seeded into a 24-well plate at a density of 2×10^5 cells per well the day before the experiment. The medium was replaced with fresh DMEM including ^18F-CHL-2205 (ca. 74 kBq per well) and incubated at 37° C. for 15, 30, and 45 min. The supernatant was collected, and the cells were washed twice with cold 1×phosphate-buffered salinc (PBS) and then harvested by adding 200 μl of 1N NaOH followed by additional two times rinsing with 1×PBS. The blocking assay was performed with the HEK-CYP46A1 cells. […] Supernatant and cell suspensions including 1×PBS from each wash step were collected and then measured using a gamma counter, whereas cell uptake was expressed as the percentage of the added dose after decay correction.

CYP46A1 [8] = target: T4, CYP46A1 (Homo sapiens, UniProt Q9Y6A2); assay: Clinical PET study in healthy volunteers; format: in vivo; design: from tissue; host or cells: brain of living healthy volunteers; details: CYP46A1-rich regions
Experimental: Eight healthy participants underwent a PET scan with 18F-CHL-2205, followed by a magnetic resonance imaging (MRI) scan for anatomical orientation. Because of the physical half-life of fluorine-18 (109.8 min), the tracer was produced on the day of the experiment in a designated hot cell that provided shielding from radiation exposure and was equipped with an automated synthesis module. PET scans were performed for a duration of 90 min, and the data were subsequently reconstructed to allow the assessment of tracer uptake as a surrogate for CYP46A1 abundancy and cholesterol metabolism.
Experiments were performed to determine whether CYP46A1-targeted PET was sensitive to sex differences in brain cholesterol metabolism. […] Conversely, there was no difference in tracer uptake for low-target density regions such as the cerebellum and brainstem. These findings imply that considerable sex differences in brain cholesterol metabolism via CYP46A1 exist in humans.
An open-label clinical study to evaluate the tolerability, safety, and tracer performance characteristics of 18F-CHL-2205 in healthy volunteers (four men and four women, 22 to 31 years of age) was conducted. […] Volumes of distribution were further determined by Logan graphical analysis and were used to calculate binding potentials. […]

CYP46A1 [9] = target: T1, CYP46A1; assay: Brain binding in Cyp46A1 knockout versus control mice; design: from tissue; host or cells: mouse brain (Cyp46A1+/+ controls; 3xTg-AD mice and controls)
Text: A consideration in CNS-targeted PET constitutes the ability of the tracer to selectivity bind to a target protein while lacking interactions with other abundant brain proteins.

CYP46A1 [10] = target: T1, CYP46A1; assay: PET imaging in 3xTg-AD mice and controls; format: in vivo; design: from tissue; host or cells: mouse brain (Cyp46A1+/+ controls; 3xTg-AD mice and controls); details: baseline, intravenous administration
Experimental: Tracer binding was assessed and validated in the 3xTg-AD mouse model. […] Hippocampal uptake of the CYP46A1 tracer was compared between 3xTg-AD mice and respective controls.
as §2

CYP46A1 [11] = target: T4, CYP46A1; assay: Competitive displacement of 18F-CHL-2205; format: binding
CYP46A1 [12] = target: T5, CYP46A1 (Macaca mulatta, UniProt I2CYF7); assay: In vitro autoradiography of NHP brain; format: binding, NHPs; design: from tissue; host or cells: NHP brain sections; details: excess blocker
Experimental: PET imaging experiments were conducted in non-human primates (NHPs). Consistent with observations from rodent data, the signal intensity of tracer binding correlated with high abundancy regions for CYP46A1, including the putamen, caudate, and limbic cortical regions such as superficial layers of temporal, insular, and cingulate cortex, as evidenced by in vitro autoradiograms of the brain.

CYP46A1 [13] = target: T5, CYP46A1; assay: Target occupancy PET study in rhesus monkeys; format: in vivo; design: from tissue; host or cells: brain of living rhesus monkeys; details: rhesus monkey; dose of 0.9 μmol/kg intravenous, all regions
Experimental: Four rhesus monkeys (4.8 to 9.3 kg) were anesthetized by intramuscular injection of ketamine (10 mg/kg) and then put on the MRI scanning bed in the supine position. Whole-brain images were acquired. For PET, the subjects were initially anesthetized with ketamine (10 mg/kg, intramuscularly), put on the scanning bed, and maintained under anesthesia with 2% isoflurane and 98% oxygen. All rhesus monkeys were supine, and a stereotactic frame was used to fix the position of the head. […] PET/CT and MR images were co-registered. TACs were derived from the respective volumes of interest and were presented as SUVs, which were decay-corrected to the time of radioligand injection. Whole-blood samples were collected from an arterial catheter to measure radioactivity in whole blood and plasma. […]
Then, the mixture was injected into a high-performance liquid chromatography (HPLC) system equipped with a semipreparative IIPLC column and an ultraviolet detector with the wavelength set at 254 nm. […] The HPLC fractions were collected at 30-s intervals for 13 min; each fraction was counted with automatic gamma well counter. […] Tissue volumes of distribution (VT) and non-displaceable binding potential (BPND) values were determined from a two-tissue compartment model, with metabolite-corrected arterial input function.

T2 sequence (A0ACM8QFK4 29-500): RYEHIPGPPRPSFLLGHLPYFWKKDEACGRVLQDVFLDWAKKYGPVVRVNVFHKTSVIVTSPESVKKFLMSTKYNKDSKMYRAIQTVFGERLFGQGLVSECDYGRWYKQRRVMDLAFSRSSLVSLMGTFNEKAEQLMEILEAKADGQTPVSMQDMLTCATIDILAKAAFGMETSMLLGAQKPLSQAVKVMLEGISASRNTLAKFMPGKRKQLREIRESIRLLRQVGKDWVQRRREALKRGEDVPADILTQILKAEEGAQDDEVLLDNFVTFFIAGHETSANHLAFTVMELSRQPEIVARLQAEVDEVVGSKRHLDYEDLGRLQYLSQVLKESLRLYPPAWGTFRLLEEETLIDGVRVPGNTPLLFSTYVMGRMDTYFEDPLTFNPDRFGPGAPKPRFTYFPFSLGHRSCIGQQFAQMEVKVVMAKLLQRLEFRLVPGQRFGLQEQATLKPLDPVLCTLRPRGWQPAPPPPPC
T4 sequence (Q9Y6A2 whole entry): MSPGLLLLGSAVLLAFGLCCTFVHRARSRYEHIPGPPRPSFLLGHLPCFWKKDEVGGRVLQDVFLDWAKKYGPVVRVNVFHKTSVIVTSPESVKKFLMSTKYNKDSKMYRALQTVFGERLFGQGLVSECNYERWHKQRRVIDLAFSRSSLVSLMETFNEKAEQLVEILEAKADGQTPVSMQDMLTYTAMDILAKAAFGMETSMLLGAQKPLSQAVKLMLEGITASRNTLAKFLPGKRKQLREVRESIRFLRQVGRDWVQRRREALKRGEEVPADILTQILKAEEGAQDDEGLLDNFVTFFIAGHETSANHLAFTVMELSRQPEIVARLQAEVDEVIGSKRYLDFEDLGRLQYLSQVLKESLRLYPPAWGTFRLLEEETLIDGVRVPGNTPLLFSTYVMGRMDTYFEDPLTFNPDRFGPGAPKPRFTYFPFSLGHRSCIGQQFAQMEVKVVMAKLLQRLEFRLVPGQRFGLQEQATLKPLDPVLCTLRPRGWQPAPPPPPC
T1 sequence (Q9WVK8 whole entry): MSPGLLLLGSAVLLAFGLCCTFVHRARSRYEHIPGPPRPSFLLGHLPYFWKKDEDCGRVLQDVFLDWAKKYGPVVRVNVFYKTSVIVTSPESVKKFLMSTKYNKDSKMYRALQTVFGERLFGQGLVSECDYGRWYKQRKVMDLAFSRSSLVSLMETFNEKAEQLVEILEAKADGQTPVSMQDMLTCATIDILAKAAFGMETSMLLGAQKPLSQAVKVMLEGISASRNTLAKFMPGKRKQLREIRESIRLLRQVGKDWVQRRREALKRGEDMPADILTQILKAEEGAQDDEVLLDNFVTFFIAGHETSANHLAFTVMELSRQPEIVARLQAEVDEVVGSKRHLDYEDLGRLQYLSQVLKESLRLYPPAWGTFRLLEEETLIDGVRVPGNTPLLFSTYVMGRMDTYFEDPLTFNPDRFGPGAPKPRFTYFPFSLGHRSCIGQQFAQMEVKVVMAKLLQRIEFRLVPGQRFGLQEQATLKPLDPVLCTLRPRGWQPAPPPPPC
T3 sequence (Q9Y6A2 whole entry): as the sequence (Q9Y6A2 whole entry) above
T5 sequence (I2CYF7 29-500): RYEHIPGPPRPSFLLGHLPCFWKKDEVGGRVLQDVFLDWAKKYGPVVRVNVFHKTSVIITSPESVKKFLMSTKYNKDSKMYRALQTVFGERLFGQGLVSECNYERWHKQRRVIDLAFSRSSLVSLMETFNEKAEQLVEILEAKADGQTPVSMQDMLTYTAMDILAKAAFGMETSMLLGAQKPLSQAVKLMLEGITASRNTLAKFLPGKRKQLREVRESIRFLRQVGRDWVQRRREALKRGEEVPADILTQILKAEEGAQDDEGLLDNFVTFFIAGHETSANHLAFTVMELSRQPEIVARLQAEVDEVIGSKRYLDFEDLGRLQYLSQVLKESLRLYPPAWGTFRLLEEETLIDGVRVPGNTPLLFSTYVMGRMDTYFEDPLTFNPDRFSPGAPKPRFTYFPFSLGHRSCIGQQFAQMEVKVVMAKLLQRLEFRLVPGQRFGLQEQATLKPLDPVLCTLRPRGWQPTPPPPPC

Compound	Bmax (amount of available CYP46A1 protein) (CYP46A1 [1]; cerebellum) [fmol/g]	Bmax (amount of available CYP46A1 protein) (CYP46A1 [1]; striatum) [fmol/g]	off-target activity [2]	stability against radio defluorination [3]	stability against radio defluorination [4]	stability against radio defluorination [5]	stability against radio defluorination [6]	brain signal attributed to the intact parent tracer (CYP46A1 [7]; brain)	specific signal in the brain (CYP46A1 [7]; ex vivo studies, 15, 30, and 45 min after injection)	brain uptake after systemic administration (CYP46A1 [7]; rats, intravenous injection, PET)	effective dose (Dosimetry experiments) [mSv/MBq]	cell uptake in transfected cells compared to controls (human CYP46A1 (hCYP46A1); HEK cells overexpressing hCYP46A1 vs HEK controls)	SUV15-30 in the caudate and putamen, women versus men (CYP46A1 [8])	tracer binding in brains of Cyp46A1−/− animals versus control (CYP46A1 [9]; Cyp46A1−/− vs Cyp46A1+/+ mice)	hippocampal time-activity curves (TACs) in 3xTg-AD mice versus controls (CYP46A1 [10])	displacement of 18F-CHL-2205 (CYP46A1 [11])	tracer signal of the transfected cell population on co-incubation (human CYP46A1 (hCYP46A1); escalating doses, HEK-CYP46A1 cells, 18F-CHL-2205 tracer)	autoradiography signal on co-incubation (CYP46A1 [12])	receptor occupancy at 0.9 µmol/kg (CYP46A1 [13]) [%]	tracer binding in control brains under blockade (CYP46A1 [9]; excess dose, Cyp46A1+/+ brains)
CN(C(=O)C1CCN(c2cncnc2-c2ccc([18F])cc2)CC1)C1CC1 [18F-CHL-2205, N-cyclopropyl-1-(4-(4-(fluoro-18F)phenyl)pyrimidin-5-yl)-N-methylpiperidine-4-carboxamide]	21.9	117.3	no off-target activity	stable against radio defluorination	stable against radio defluorination	stable against radio defluorination	stable against radio defluorination	Greater than 99%	greater than 90%	rapid tracer uptake into the brain	0.012	fivefold increase	higher in women than in men	signal diminished	consistently higher	–	–	–	–	–
C[C@@H](c1ncncc1F)[C@](O)(Cn1cncn1)c1ccc(F)cc1F [voriconazole]	–	–	–	–	–	–	–	–	–	–	–	–	–	–	–	competitive displacement	–	–	–	–
O=C(c1cccnc1-c1ccncc1)N1CCC(O)(Cc2ccccc2)CC1 [soticlestat]	–	–	–	–	–	–	–	–	–	–	–	–	–	–	–	competitive displacement	attenuated in a dose-dependent manner	relative signal reduction	> 90	reduced to the signal observed in Cyp46A1−/− animals
